Laboratory results as given in ChEMBL document CHEMBL4364273, “Discovery of SHR1653, a Highly Potent and Selective OTR Antagonist with Improved Blood-Brain Barrier Penetration” (ACS Med Chem Lett, 2019).
Converted amounts (≈) assume the structure as drawn.

Assays:
[1] = Half-life in Beagle dog at 2 mg/kg, po measured for 24 hrs by LC-MS/MS analysis; type: ADME, organism-based, Canis lupus familiaris; details: in vivo
[2] = Cmax in Sprague-Dawley rat at 150 mg/kg, po measured for 24 hrs by LC-MS/MS analysis; type: ADME, organism-based; parameters: dose 150 mg/kg, route oral; details: in vivo
[3] = Cmax in nude mouse at 4 mg/kg, po measured for 24 hrs by LC-MS/MS analysis; type: ADME, organism-based; parameters: dose 4 mg/kg, route oral; details: in vivo
[4] = Tmax in Sprague-Dawley rat at 30 mg/kg, po measured for 24 hrs by LC-MS/MS analysis; type: ADME, organism-based; details: in vivo
Rattus norvegicus [5] = assay: Anti-premature ejaculation activity in anesthetized oxytocin-induced uterine contraction Sprague-Dawley rat model assessed as decrease in intraluminal uterine pressure at 100 mg/kg, po treated for 20 mins and 1 hr later treated with oxytocin and measured for 15 to 30 mins relative to control; type: functional
[6] = Half-life in nude mouse at 4 mg/kg, po measured for 24 hrs by LC-MS/MS analysis; type: ADME, organism-based; details: in vivo
[7] = Tmax in Beagle dog at 20 mg/kg, po measured for 24 hrs by LC-MS/MS analysis; type: ADME, organism-based, Canis lupus familiaris; details: in vivo
[8] = Solubility of compound in PBS at pH 7.4; type: physicochemical
[9] = Hepatic clearance in mouse liver microsomes by LC-MS/MS analysis; type: ADME, Microsome
[10] = Unbound fraction in Sprague-Dawley rat plasma by LC-MS/MS analysis; type: ADME, cell-free
[11] = molecular target: Voltage-gated inwardly rectifying potassium channel KCNH2 (Homo sapiens, UniProt Q12809); assay: Inhibition of human ERG
Voltage-gated inwardly rectifying potassium channel KCNH2, sequence (Q12809 whole entry): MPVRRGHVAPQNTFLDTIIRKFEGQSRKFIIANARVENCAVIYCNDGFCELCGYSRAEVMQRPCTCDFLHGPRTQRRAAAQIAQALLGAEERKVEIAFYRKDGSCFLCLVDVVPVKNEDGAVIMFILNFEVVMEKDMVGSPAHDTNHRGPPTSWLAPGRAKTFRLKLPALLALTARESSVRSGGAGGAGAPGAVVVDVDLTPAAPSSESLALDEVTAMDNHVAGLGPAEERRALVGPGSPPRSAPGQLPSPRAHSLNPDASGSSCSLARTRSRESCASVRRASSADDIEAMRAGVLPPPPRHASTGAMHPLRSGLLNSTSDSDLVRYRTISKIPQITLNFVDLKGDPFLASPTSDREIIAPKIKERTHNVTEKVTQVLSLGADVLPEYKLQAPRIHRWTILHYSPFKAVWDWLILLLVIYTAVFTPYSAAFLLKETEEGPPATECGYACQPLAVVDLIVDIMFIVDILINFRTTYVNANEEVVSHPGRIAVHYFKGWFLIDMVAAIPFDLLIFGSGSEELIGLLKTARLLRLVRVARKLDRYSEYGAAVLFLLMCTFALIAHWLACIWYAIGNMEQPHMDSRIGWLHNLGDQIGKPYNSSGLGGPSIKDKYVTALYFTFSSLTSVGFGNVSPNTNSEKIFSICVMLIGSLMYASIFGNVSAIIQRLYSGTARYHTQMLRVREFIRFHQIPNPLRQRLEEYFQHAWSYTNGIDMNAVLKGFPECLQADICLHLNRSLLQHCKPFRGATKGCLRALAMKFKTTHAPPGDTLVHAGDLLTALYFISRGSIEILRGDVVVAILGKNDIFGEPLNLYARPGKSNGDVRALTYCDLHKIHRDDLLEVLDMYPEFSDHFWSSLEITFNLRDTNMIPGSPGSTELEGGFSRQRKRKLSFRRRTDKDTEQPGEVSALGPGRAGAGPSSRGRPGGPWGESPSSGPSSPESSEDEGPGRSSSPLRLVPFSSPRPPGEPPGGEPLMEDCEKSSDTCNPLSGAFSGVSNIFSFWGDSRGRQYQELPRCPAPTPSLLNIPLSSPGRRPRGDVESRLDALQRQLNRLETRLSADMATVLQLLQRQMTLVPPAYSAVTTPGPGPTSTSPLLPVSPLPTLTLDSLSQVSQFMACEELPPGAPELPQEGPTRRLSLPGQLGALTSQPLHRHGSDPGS

Rattus norvegicus [12] = assay: Anti-premature ejaculation activity in anesthetized oxytocin-induced uterine contraction Sprague-Dawley rat model assessed as decrease in intraluminal uterine pressure at 10 mg/kg, po treated for 20 mins and 1 hr later treated with oxytocin and measured for 15 to 30 mins relative to control; type: functional
[13] = Unbound brain-to-plasma concentration ratio in Sprague-Dawley rat by LC-MS/MS analysis; type: ADME, cell-free; details: read-out: K(p,uu,brain)
[14] = Hepatic clearance in rat liver microsomes by LC-MS/MS analysis; type: ADME, Microsome
[15] = AUC (0 to 24 hrs) in anesthetized oxytocin-induced uterine contraction Sprague-Dawley rat model at 30 mg/kg, po; type: ADME, organism-based; parameters: dose 30 mg/kg, time < 24 hr, route oral; details: in vivo
[16] = AUC (0 to 24 hrs) in Sprague-Dawley rat at 150 mg/kg, po by LC-MS/MS analysis; type: ADME, organism-based; parameters: time < 24 hr, dose 150 mg/kg, route oral; details: in vivo
[17] = Clearance in Sprague-Dawley rat at 1 mg/kg, iv measured for 24 hrs by LC-MS/MS analysis; type: ADME, organism-based; details: in vivo
[18] = Clearance in nude mouse at 1 mg/kg, iv measured for 24 hrs by LC-MS/MS analysis; type: ADME, organism-based; details: in vivo
[19] = Cmax in Beagle dog at 2 mg/kg, po measured for 24 hrs by LC-MS/MS analysis; type: ADME, organism-based, Canis lupus familiaris; parameters: dose 2 mg/kg, route oral; details: in vivo
Homo sapiens [20] = species: Homo sapiens; assay: Selectivity ratio of IC50 for human vasopressin V1A receptor expressed in HEK293 cells to IC50 for human OTR expressed in HEK293 cells; type: cell-based
Cytochrome P450 3A4 = Cytochrome P450 3A4 (Homo sapiens, UniProt P08684); assay: Inhibition of human recombinant CYP3A4 using testosterone as substrate; type: ADME
Cytochrome P450 3A4, sequence (P08684 whole entry): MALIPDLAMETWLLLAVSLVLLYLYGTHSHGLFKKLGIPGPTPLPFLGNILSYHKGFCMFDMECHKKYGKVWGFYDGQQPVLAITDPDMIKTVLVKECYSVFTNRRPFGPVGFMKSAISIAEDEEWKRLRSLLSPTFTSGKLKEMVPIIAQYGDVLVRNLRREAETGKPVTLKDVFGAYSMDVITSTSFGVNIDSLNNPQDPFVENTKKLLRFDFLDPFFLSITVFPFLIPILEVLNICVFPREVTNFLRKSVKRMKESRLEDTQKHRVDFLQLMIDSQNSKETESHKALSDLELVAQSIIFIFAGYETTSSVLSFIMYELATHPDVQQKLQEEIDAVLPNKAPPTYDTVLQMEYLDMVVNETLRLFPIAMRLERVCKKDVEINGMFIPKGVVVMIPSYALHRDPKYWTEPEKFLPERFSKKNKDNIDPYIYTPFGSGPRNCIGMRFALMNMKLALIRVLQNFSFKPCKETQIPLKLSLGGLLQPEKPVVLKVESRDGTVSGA

Homo sapiens [21] = species: Homo sapiens; assay: Selectivity ratio of IC50 for human vasopressin V2 receptor expressed in HEK293 cells to IC50 for human OTR expressed in HEK293 cells; type: cell-based
[22] = Drug concentration in Sprague-Dawley rat brain by LC-MS/MS analysis; type: ADME, tissue-based; details: in vivo
[23] = AUC (0 to 24 hrs) in nude mouse at 4 mg/kg, po by LC-MS/MS analysis; type: ADME, organism-based; parameters: time < 24 hr, dose 4 mg/kg, route oral; details: in vivo
[24] = Acute toxicity in rat assessed as effect on blood chemistry parameters up to 300 mg/kg measured for 7 days; type: organism-based; details: in vivo, 168 h

Work on `COCc1nnc(N2C[C@@H]3C[C@]3(c3ccc(F)cc3Cl)C2)n1-c1ccc(OC)nc1` yielded a half-life [1] of 278 min, a Cmax [2] of 14000 ng/mL and a Cmax [3] of 330 ng/mL. For the same compound, the Tmax [4] was 37.8 min, the inhibition in vivo at 100 mg/kg (Rattus norvegicus [5]) was 77.5% and the half-life [6] was 114 min. For the same compound, the Tmax [7] was 52.8 min, the solubility [8] was 420 µM (≈ 180 µg/mL) and the CLhep predicted [9] was 77.4 mL/min/kg. The fraction unbound [10] was 0.0146, the IC50 [11] was 16 µM and the inhibition in vivo at 10 mg/kg (Rattus norvegicus [12]) was 17.6%. For the same compound, the Kp uu [13] was 0.188, the CLhep predicted [14] was 54.9 mL/min/kg and the AUC(0-t) at 24 h [15] was 28300 ng·h/mL. It also gave an AUC(0-t) at 24 h [16] of 57200 ng·h/mL, a clearance [17] of 16.1 mL/min/kg and a clearance [18] of 31.3 mL/min/kg. The Cmax [19] was 930 ng/mL, the Ratio IC50 (Homo sapiens [20]) was 192 and the IC50 (Cytochrome P450 3A4) was 20 µM. For the same compound, the Ratio IC50 (Homo sapiens [21]) was 2170, the Ct [22] was 229 ng/g and the AUC(0-t) at 24 h [23] was 548 ng·h/mL. The Activity [24] was “Non-Toxic”.
